From ChEMBL document CHEMBL1201862, “PubChem BioAssay data set” (2004)
The source made the active and inactive calls.

Key:
[1] = target: T1, Protein RecA (Mycobacterium tuberculosis, UniProt P9WHJ3); test: Fluorescence Cell-Free Homogeneous Dose Retest to Identify Inhibitors of RecA-Intein Splicing Activity. [Related pubchem assays (depositor defined):AID2097, AID2223, AID489010, AID492950]; type: functional
T1 sequence (P9WHJ3 whole entry): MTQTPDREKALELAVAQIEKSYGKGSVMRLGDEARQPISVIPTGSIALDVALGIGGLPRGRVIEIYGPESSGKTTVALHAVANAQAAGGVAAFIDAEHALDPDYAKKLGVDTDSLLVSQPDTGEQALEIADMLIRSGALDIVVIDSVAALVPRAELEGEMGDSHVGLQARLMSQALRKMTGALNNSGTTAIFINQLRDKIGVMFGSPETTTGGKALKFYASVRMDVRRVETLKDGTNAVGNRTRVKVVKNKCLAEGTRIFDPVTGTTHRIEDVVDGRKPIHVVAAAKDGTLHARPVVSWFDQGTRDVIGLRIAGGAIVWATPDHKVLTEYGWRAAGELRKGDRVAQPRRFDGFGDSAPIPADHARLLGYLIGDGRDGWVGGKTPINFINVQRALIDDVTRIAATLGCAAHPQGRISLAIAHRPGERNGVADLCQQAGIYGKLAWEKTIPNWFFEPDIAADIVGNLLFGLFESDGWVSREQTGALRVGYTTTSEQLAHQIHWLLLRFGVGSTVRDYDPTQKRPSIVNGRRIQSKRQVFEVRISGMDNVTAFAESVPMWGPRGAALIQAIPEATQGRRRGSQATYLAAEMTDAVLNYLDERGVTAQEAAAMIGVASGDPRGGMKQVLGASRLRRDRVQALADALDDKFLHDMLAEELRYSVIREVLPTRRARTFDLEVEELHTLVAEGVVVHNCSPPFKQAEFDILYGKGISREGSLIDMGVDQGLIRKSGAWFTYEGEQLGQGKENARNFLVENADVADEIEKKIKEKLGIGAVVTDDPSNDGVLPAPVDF

[2] = target: Induced myeloid leukemia cell differentiation protein Mcl-1 (Homo sapiens, UniProt Q07820); type: functional
Induced myeloid leukemia cell differentiation protein Mcl-1, sequence (Q07820 whole entry): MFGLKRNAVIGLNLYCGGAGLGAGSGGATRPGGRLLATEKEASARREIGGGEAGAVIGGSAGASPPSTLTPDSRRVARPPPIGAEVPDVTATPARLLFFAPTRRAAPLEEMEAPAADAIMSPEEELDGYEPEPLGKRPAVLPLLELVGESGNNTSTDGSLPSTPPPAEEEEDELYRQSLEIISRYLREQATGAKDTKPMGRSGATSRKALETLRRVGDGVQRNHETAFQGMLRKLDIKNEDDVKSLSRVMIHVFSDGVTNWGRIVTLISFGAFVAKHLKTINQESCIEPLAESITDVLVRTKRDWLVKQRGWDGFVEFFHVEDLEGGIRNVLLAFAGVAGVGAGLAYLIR

[3] = target: T2, Replicative DNA helicase DnaB (Mycobacterium tuberculosis, UniProt P9WMR3); test: DnaB intein splicing inhibitors, dose response, biochemical, cell-free fluorescence (AID 449749); type: functional
T2 sequence (P9WMR3 whole entry): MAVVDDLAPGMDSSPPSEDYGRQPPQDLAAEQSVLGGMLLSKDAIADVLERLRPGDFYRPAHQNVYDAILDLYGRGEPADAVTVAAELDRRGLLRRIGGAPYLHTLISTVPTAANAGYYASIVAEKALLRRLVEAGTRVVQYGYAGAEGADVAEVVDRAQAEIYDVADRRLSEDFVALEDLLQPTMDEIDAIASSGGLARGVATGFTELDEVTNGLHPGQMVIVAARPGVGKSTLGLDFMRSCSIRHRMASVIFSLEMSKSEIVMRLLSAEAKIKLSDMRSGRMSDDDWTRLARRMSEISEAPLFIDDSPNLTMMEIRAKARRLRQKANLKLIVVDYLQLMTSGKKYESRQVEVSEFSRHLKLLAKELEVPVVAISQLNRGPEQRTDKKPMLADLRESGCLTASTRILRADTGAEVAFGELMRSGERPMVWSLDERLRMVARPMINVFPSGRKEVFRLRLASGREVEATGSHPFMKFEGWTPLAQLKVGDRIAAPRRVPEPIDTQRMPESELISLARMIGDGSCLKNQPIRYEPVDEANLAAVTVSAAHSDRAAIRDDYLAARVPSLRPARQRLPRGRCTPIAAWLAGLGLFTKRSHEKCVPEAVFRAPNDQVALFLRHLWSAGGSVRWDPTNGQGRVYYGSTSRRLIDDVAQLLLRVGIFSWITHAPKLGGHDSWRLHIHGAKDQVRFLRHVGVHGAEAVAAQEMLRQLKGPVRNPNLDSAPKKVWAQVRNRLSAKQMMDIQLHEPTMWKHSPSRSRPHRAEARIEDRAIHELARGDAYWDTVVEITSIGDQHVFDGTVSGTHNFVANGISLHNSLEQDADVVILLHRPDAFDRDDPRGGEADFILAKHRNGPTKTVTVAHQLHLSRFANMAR

[4] = inhibitors of SNCA 5'UTR-driven reporter translation, confirmation, H4 neuroglioma cells, luminescence (AID 1988); type: functional, cell-based
[5] = test system: HT-1080; test: cytotoxicity in HT1080 fibrosarcoma cells, cell-based, fluorescence readout (AID 620); type: functional; settings: Homo sapiens
[6] = target: Luciferin 4-monooxygenase (Photinus pyralis, UniProt P08659); test: Counter Screen for Luciferase-based Assay Positives. [Related pubchem assays: 620, 618, 411 ]
Luciferin 4-monooxygenase, sequence (P08659 whole entry): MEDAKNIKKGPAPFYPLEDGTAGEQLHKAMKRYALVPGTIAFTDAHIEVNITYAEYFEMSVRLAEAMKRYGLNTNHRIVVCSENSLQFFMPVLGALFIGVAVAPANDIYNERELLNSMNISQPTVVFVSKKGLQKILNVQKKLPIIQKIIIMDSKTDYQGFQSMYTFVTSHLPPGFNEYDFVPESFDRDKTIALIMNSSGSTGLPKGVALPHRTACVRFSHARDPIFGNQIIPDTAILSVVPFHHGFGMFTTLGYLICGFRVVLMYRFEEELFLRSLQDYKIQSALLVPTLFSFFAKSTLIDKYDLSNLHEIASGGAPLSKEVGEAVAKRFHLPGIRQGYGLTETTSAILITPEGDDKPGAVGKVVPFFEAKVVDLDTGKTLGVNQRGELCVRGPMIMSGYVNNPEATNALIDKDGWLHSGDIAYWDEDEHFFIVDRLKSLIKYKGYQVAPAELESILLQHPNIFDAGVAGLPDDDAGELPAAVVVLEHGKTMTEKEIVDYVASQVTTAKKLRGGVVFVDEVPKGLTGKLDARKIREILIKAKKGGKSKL

[7] = inhibitors of firefly luciferase expression or activity, dose response, H4 neuroglioma cells, luminescence (AID 1990); type: functional, cell-based
[8] = target: T3, Heat shock factor protein 1 (Mus musculus, UniProt P38532); test: inhibition of MG132-induced HSE-luciferase signal, confirmation, cell-based, NIH3T3, luminescence, dose retest (AID 2382); type: functional;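 further: NIH3T3 fibroblasts with HSF1-driven luciferase reporter stressed by proteasome inhibitor MG132; luminescence from HSF1-driven luciferase expression after 8 hours of MG132 stress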
T3 sequence (P38532 whole entry): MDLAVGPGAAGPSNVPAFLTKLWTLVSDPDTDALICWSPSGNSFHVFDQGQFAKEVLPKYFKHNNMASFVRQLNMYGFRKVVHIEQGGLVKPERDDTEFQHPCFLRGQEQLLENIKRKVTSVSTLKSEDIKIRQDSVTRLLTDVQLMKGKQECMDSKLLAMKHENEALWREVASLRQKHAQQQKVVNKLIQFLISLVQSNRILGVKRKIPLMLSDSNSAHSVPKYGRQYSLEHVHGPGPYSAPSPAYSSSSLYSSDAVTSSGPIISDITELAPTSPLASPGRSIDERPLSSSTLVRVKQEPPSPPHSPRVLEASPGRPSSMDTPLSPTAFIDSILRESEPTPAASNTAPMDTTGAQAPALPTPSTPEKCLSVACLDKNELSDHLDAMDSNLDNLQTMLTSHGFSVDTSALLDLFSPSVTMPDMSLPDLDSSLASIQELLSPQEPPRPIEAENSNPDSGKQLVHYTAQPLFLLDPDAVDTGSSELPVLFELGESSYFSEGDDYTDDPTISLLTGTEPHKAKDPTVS

[9] = Luminescence Cell-Based Dose Response HTS to Identify Inhibitors of 5'UTR Stem-Loop Driven Prion Protein mRNA Translation in H4 Neuroglioblastoma Cells. [Related pubchem assays: 1827 (Project Summary), 1813 (Primary HTS)]; type: functional
[10] = target: T4, Rac GTPase-activating protein 1 (Homo sapiens, UniProt Q9H0H5); test: MgcRacGAP GTPase-activating activity inhibitors, confirmation, biochemical, ADP Hunter fluorescence, primary and confirmatory (AID 624330); type: functional
T4 sequence (Q9H0H5 whole entry): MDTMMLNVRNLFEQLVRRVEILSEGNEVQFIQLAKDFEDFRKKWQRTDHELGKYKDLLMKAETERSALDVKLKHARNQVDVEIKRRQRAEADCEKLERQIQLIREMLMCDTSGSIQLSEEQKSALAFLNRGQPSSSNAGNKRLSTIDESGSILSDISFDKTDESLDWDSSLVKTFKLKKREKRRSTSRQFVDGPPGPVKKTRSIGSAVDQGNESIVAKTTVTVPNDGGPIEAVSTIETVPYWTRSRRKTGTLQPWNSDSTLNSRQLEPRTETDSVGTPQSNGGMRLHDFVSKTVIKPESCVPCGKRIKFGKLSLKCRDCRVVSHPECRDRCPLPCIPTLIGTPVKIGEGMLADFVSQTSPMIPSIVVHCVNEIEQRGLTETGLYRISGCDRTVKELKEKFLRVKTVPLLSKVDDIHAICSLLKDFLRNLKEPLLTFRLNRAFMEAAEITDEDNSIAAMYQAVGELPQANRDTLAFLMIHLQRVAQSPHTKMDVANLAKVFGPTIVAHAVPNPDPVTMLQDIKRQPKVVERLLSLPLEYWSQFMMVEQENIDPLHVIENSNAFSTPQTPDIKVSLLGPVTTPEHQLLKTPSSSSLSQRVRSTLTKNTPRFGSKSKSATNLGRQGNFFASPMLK

[11] = target: Heat shock protein HSP 90-alpha (Homo sapiens, UniProt P07900); type: functional, organism-based
[12] = target: T5, Fatty acid synthase (Homo sapiens, UniProt P49327); test: FAS thioesterase domain inhibitors, dose response, biochemical, kinetic fluorescence intensity (AID 624326); type: functional;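 further: rate of fluorescence rise from hydrolysis of a fluorogenic O-methyl fluorescein ester substrate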
T5 sequence (P49327 whole entry, the tested form may be a part): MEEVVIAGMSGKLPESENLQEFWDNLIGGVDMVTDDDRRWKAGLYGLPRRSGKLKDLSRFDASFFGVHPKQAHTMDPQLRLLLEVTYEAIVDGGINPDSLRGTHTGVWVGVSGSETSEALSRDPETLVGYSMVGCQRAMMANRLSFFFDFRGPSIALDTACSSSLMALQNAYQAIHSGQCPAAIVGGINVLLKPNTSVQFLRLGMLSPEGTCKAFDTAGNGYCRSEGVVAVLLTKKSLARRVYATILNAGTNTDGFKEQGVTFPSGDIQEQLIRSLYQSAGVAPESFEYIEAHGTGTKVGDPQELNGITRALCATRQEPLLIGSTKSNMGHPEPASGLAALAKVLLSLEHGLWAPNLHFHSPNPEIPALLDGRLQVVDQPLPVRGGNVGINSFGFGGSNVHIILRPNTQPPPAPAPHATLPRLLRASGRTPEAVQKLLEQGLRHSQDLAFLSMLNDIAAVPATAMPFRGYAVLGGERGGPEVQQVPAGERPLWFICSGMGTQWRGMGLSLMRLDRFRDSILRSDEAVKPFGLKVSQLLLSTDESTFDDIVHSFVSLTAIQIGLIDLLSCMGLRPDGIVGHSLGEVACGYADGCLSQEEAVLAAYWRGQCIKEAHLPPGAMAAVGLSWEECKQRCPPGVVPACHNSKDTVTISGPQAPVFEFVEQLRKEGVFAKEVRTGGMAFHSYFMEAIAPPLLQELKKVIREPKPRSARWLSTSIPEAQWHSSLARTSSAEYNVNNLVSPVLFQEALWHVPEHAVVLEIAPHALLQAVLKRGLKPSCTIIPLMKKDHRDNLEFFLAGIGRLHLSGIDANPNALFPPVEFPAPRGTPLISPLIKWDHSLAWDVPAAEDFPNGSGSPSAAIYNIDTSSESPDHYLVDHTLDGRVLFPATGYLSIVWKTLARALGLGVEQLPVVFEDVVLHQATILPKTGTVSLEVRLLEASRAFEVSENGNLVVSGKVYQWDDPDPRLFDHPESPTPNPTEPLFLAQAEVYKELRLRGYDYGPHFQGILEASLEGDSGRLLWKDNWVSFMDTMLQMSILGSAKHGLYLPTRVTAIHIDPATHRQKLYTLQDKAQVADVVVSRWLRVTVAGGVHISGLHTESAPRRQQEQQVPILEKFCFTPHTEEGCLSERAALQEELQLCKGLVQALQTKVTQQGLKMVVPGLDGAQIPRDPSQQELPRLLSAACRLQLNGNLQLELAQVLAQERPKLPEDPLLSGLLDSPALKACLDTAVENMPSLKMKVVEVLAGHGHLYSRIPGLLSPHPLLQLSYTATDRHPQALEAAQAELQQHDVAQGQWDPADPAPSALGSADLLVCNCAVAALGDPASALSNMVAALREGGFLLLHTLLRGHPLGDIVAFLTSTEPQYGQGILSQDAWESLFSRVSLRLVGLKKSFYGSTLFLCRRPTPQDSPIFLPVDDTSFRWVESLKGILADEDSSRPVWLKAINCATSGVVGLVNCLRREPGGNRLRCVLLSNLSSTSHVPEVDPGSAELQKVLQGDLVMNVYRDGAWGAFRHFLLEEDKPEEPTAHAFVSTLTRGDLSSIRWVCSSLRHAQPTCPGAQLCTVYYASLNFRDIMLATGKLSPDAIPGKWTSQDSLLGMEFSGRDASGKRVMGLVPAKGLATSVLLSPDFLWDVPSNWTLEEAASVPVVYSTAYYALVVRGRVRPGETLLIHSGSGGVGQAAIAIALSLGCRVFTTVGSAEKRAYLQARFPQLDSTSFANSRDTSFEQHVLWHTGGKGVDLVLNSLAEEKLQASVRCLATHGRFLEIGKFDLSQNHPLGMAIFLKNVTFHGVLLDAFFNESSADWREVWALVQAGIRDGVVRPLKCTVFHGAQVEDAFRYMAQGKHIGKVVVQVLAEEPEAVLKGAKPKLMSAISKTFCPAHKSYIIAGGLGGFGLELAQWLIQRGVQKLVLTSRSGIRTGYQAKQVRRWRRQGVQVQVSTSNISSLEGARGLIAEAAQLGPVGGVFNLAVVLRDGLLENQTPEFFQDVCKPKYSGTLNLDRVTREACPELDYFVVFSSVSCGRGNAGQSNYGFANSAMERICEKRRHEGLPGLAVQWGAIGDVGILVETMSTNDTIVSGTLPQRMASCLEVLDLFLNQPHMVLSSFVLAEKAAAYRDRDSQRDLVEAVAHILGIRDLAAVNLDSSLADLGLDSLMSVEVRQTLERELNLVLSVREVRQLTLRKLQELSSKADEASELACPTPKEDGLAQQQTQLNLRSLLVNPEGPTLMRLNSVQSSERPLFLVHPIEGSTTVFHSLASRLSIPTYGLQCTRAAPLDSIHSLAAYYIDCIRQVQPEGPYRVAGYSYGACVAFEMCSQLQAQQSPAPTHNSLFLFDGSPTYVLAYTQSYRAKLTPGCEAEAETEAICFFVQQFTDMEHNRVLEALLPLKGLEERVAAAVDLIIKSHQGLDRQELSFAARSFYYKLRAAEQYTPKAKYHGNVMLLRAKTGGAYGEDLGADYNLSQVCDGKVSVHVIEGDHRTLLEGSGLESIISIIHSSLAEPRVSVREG

[13] = target: T5, Fatty acid synthase; test: FAS thioesterase domain inhibitors, dose response, biochemical, endpoint fluorescence intensity, uHTS hits (AID 624327); type: functional;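 further: fluorescence from hydrolysis of an O-methyl fluorescein acyl ester substrate by the enzyme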
[14] = target: T6, Estrogen receptor (Homo sapiens, UniProt P03372);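 further: potency for inhibiting coactivator peptide recruitment to the receptor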
T6 sequence (P03372 whole entry): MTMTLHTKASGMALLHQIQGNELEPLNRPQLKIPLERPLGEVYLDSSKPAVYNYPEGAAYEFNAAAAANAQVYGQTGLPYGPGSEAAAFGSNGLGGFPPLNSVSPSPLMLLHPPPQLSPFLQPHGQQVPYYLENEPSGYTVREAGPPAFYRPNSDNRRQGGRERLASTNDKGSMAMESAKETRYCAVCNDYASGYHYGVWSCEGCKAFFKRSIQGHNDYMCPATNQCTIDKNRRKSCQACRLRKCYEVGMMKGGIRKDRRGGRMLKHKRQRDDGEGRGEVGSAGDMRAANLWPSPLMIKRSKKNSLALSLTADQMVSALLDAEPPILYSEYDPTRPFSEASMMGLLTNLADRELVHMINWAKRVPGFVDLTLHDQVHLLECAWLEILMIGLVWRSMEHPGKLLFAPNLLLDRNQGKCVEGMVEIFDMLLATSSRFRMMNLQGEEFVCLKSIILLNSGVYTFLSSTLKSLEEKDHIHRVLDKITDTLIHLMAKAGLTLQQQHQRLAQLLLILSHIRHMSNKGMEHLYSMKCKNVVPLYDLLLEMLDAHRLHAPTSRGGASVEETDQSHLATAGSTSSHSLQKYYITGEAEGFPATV

[15] = cytotoxicity toward NIH3T3 fibroblasts, dose response, counter-screen, cell-based, ATP luminescence, mouse fibroblasts (AID 2010); type: functional;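 further: cells exposed to compound for about 90 hours before reading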
[16] = inhibitors of intracellular T. cruzi replication, confirmation, NIH3T3 host cells, beta-gal luminescence (AID 2044); type: functional, cell-based;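 further: intracellular parasites grown in NIH/3T3 mouse fibroblasts as host cells; luminescent beta-galactosidase reporter signal from transgenic T. cruzi replicating inside host cells; inhibitors lower the luminescence signal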
[17] = MC4R antagonists, dose response, counter-screen for LGR2 antagonist project, cell-based, plate reader, cherry pick (AID 743444); type: functional;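 further: transfected HEK 293 cells stimulated with alpha-MSH peptide; potency of inhibitors of the alpha-MSH evoked signal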
[18] = LGR2 antagonists, dose response, cell-based, HEK293, CRE-luciferase reporter, cherry pick, set 2 (AID 743343); type: functional;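 further: transfected cells were stimulated with diluted bursicon conditioned medium after compound addition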
[19] = inhibitors of clade B AD8 Env fusion, dose response, cell-based, cherry-pick (AID 652062); type: functional;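 further: luciferase signal from cell-cell fusion driven by HIV-1 clade B AD8 Env; potency is for inhibitors of fusion seen as a drop in luminescence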
[20] = inhibitors of HIV Env-driven cell fusion, dose response, cherry-pick (AID 652057); type: functional, cell-based
[21] = ZM109 Env clade C HIV-1 fusion inhibitors, dose response, HeLa effector, CEM target cells, luciferase, cherry-pick (AID 652058); type: functional, cell-based

CCC(=O)N(CC)C1=C(O)C(=O)c2ccccc2C1=O
EC50 [1]: 8.5 µM (active)
IC50 [2]: 1.44 µM (active)
AC50 [3]: 14.5 µM (active)

O=C(O)CCSc1nnc(-c2ccc3c(c2)OCO3)o1
EC50 [4]: 10.6 µM (active)
EC50 [5]: > 50 µM (not active)
EC50 [6]: 27.7 µM (active)
EC50 [7]: 8.07 µM (active)
EC50 [8]: 3.01 µM (active)
EC50 [9]: > 120 µM (not active)

Cc1ccc(N2CC(C(=O)Nc3ccc(N(C)C)cc3)CC2=O)cc1C (centres undefined)
IC50 [2]: 3.29 µM (not active)
IC50 [10]: 54.2 µM (active)

CCOc1ccc(C(=O)Nc2cc(NC(=O)c3ccc(OCC)c(Cl)c3)cc(C(=O)O)c2)cc1Cl
IC50 [2]: 14.3 µM (active)

CCCCCCCCNC(=O)/C(C#N)=C/c1ccccc1[N+](=O)[O-]
AC50 [11]: 4.28 µM (active)
IC50 [12]: 5.82 µM (active)
EC50 [1]: 3.79 µM (active)
IC50 [13]: 8.41 µM (active)
AC50 [3]: 1.98 µM (active)

CSc1ncc2c(n1)-c1cc(C)ccc1SC2
IC50 [14]: > 50 µM (not active)
EC50 [15]: > 30 µM (not active)
EC50 [16]: 0.135 µM (active)

O=C(Nc1ccc(Cl)c(S(=O)(=O)N2CCOCC2)c1)c1ccc2c(c1)OCCO2
AC50 [17]: 38.9 µM (active)
AC50 [18]: 37.9 µM (active)

COc1ccc(OC)c(NC(=O)c2cc(-c3ccc(C)cc3O)[nH]n2)c1
IC50 [14]: 22.1 µM (active)

Cn1cc(C(=O)NC2CCCCCC2)c(=O)c2cc(S(=O)(=O)N3CCCC3)ccc21
IC50 [14]: > 50 µM (not active)

O=C1N=C(NNc2ccccc2)S/C1=C\c1ccccc1
IC50 [2]: 4.76 µM (not active)

Cc1noc(C)c1S(=O)(=O)N(C)C[C@@H]1Oc2ccc(NC(=O)Nc3cccc4ccccc34)cc2CC(=O)N([C@H](C)CO)C[C@@H]1C
AC50 [19]: 2.17 µM (active)
AC50 [20]: < 0.285 µM (active)
AC50 [21]: < 0.285 µM (active)

CCc1cnc(N2[C@@H](C#N)[C@H](c3ccc(C#Cc4ccccc4F)cc3)[C@@H]2CO)s1
AC50 [19]: 24.4 µM (active)
AC50 [20]: 39.8 µM (active)
AC50 [21]: 5.29 µM (active)

C[C@H]1CN([C@@H](C)CO)C(=O)c2cc(NC(=O)Nc3ccc4c(c3)OCO4)ccc2O[C@H]1CN(C)S(=O)(=O)c1ccc(Cl)cc1
AC50 [19]: 14.5 µM (active)
AC50 [20]: 1.49 µM (active)
AC50 [21]: 5.25 µM (active)
